Data taken from patent US20260365647A1, “AKT1 MODULATORS” (Alterome Therapeutics, Inc., priority 2022, published 2026).

Biological target: T1, AKT1-E17K (Homo sapiens, UniProt P31749, E17K)
T1 construct: host or cells: HEK-293 (ATCC CRL-1573)
Assay: NanoBRET Target Engagement (TE) Assay
Format: cell-based
Procedure, shortened: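 Live cells transiently expressing NanoLuc-AKT1 E17K fusion, incubated 2 h with tracer and compound before substrate plus extracellular NanoLuc inhibitor were added. BRET read at 450/600 nm; EC50 from variable-slope sigmoidal fit of tracer displacement.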

T1 sequence (P31749 whole entry E17K): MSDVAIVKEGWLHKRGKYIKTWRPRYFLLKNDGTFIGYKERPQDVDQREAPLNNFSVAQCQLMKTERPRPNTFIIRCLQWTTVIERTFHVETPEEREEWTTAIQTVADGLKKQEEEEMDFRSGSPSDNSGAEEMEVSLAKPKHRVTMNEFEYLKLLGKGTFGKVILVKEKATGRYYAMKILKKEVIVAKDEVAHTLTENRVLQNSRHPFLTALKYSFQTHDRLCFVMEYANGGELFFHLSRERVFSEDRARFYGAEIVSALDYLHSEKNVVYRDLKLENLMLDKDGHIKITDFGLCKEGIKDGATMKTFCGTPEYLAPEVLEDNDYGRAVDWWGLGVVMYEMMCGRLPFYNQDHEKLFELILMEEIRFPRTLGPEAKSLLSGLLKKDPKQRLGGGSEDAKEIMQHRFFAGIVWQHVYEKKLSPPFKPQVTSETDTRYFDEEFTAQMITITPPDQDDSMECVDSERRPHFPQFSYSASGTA

| SMILES | IC50 [µM] |
| --- | --- |
| CN(Cc1ccc(-n2c(-c3cccnc3N)nc3ccc(-c4ccccc4)nc32)cc1)c1ccc(C=O)c(O)c1 [Example 17, 4-((4-(2-(2-Aminopyridin-3-yl)-5-phenyl-3H-imidazo[4,5-b]pyridin-3-yl)benzyl)(methyl)amino)-2-hydroxybenzaldehyde] | 0.06 to 0.6 |
| Nc1ncccc1-c1nc2ccc(C3=CCCCC3)nc2n1-c1ccc(CN2CCN(C(=O)c3ccc(C=O)c(O)c3)CC2)cc1 [Example 151, 4-(4-(4-(2-(2-aminopyridin-3-yl)-5-(cyclohex-1-en-1-yl)-3H-imidazo[4,5-b]pyridin-3-yl)benzyl)piperazine-1-carbonyl)-2-hydroxybenzaldehyde] | > 0.6 |
| Nc1ncccc1-c1nc2ccc(-c3ccccc3)nc2n1-c1ccc(CN2CC(NC(=O)c3ccc(C=O)c(O)c3)C2)cc1 [Example 65, N-(1-(4-(2-(2-Aminopyridin-3-yl)-5-phenyl-3H-imidazo[4,5-h]pyridin-3-yl)benzyl)azetidin-3-yl)-4-formyl-3-hydroxybenzamide] | 0.015 to 0.06 |
| Nc1ncccc1-c1nc2cccnc2n1-c1ccc(CN2CCN(c3ccc(C=O)c(O)c3)CC2)cc1 [Example 16, 4-(4-(4-(2-(2-Aminopyridin-3-yl)-3H-imidazo[4,5-b]pyridin-3-yl)benzyl)piperazin-1-yl)-2-hydroxybenzaldehyde] | 0.06 to 0.6 |
| Nc1ncccc1-c1nc2ccc(-c3ccccc3)nc2n1-c1ccc(CN2CC3(CCN(C(=O)c4ccc(O)c(C=O)c4)C3)C2)cc1 [Example 92, 5-(2-(4-(2-(2-Aminopyridin-3-yl)-5-phenyl-3H-imidazo[4,5-b]pyridin-3-yl)benzyl)-2,6-diazaspiro[3.4]octane-6-carbonyl)-2-hydroxybenzaldehyde] | 0.015 to 0.06 |
| Nc1ncccc1-c1nc2ccc(-c3ccc(Cl)cc3)nc2n1-c1ccc(CN2CCN(C(=O)c3ccc(O)c(C=O)c3)CC2)cc1 [Example 147, 5-(4-(4-(2-(2-aminopyridin-3-yl)-5-(4-chlorophenyl)-3H-imidazo[4,5-b]pyridin-3-yl)benzyl)piperazine-1-carbonyl)-2-hydroxybenzaldehyde] | > 0.6 |

Now from value to compound:

| IC50 [µM] | SMILES |
| --- | --- |
| 0.06 to 0.6 | Nc1ncccc1-c1nc2ccc(-c3ccccc3)nc2n1-c1ccc(CN2CCC(N(C(=O)c3ccc(O)c(C=O)c3)C3CC3)CC2)cc1 [Example 12, N-(1-(4-(2-(2-aminopyridin-3-yl)-5-phenyl-3H-imidazo[4,5-b]pyridin-3-yl)benzyl)piperidin-4-yl)-N-cyclopropyl-3-formyl-4-hydroxybenzamide] |
| 0.06 to 0.6 | Nc1ncccc1-c1nc2ccc(-c3ccccc3)nc2n1-c1ccc(CN2CCC(Nc3ccc(O)c(C=O)c3)CC2)cc1 [Example 48, 5-((1-(4-(2-(2-Aminopyridin-3-yl)-5-phenyl-3H-imidazo[4,5-b]pyridin-3-yl)benzyl)piperidin-4-yl)amino)-2-hydroxybenzaldehyde] |
| 0.06 to 0.6 | Nc1ncccc1-c1nc2ccc(-c3ccccc3)nc2n1-c1ccc(CN2CCN(c3ccc(O)c(C=O)c3)CC2)cc1 [Example 10, 5-(4-(4-(2-(2-aminopyridin-3-yl)-5-phenyl-3H-imidazo[4,5-b]pyridin-3-yl)benzyl)piperazin-1-yl)-2-hydroxybenzaldehyde] |
